Here are results for 2 molecules from patent US20240130988A1, “Use of stilbene compounds in the preparation of anti-tumor drugs” (Guangzhou AnHao Pharmaceutical Technology CO., LTD., priority 2022, published 2024).

Marks after values point to notes of the source that are not given here.

Assay [1] relates to LLC (mouse lung cancer cells). The assay can be described thus: Enrichment of CD8+ cytotoxic T lymphocytes in tumor tissue, Lewis non-small cell lung cancer model of mice. As to conditions: 400 mg/kg ip once a day for 10 days, flow cytometry. The class given is in vivo. Here is the method: LLC (mouse lung cancer cells) were a mouse Lewis lung cancer cells.
The modeling method for LLC cell lung cancer in mice was as follows:
LLC cells were cultured in the general medium containing 10% fetal bovine serum and 100 μg/mL of double antibody (penicillin±streptomycin), and then cultivated in a 37° C., 5% CO2 cell incubator for routine incubation. LLC cells, that had grown to logarithmic phase, were digested with 0.25% trypsin (containing EDTA) to form a cell suspension, which was centrifuged at 1000 rpm/min for 3 min. The supernatant was discarded, and cell precipitates were collected, that were resuspended in culture medium without serum and double antibody. The cell suspension was further centrifuged to adjust the volume under the same conditions with the aid of cell counting, so as to prepare a cell suspension at a concentration of […] was injected into the right abdomen of each mouse, to complete the inoculation of tumor cells. The tumor was allowed to grew about 10 days, and the volume reached around 100 mm^3, before the mice were treated with test compounds.
Drug preparation: compounds 1-13 of the present invention were respective prepared into an injection with injection water.
Experimental methods: The model mice with LLC cell lung cancer were treated by intraperitoneal administration of 400 mg/kg injection containing the compound of the present invention. The model mice were divided into a negative control group (model mice only receiving equal volume of injection water by intraperitoneal administration) and treatment groups (model mice receiving the injection prepared with the compound of the present invention by intraperitoneal administration). The intraperitoneal injection regimen was carried out by injecting once a day at the pre-determined time. Before administration, the mice were weighed, and then treated with the injection at a dosage of 10 mL/kg, After successive administration for 10 days, that is, on the 10th day after receiving treatment, the mice were sacrificed, and the subcutaneous tumors were stripped to detect the ratio of cytotoxic T lymphocyte antigen CD8^+ in tumor tissues of the negative group and the treatment group by flow cytometry.
CD8^+ tumor-infiltrating lymphocytes in tumor tissues were detected by flow cytometry. The specific steps were as follows:
The mice were sacrificed, and then the abdominal epidermis of the mice was cut open using ophthalmic scissors, to fully expose the subcutaneous tumors. The subcutaneous tumor tissues on the right side of the mouse's abdomen were gradually peeled off with tweezers and ophthalmic scissors. After rinsing with PBS, the stripped tumor tissues were cut into about 1 mm using ophthalmic scissors, and then placed in 3 mL of PBS buffer containing 100 μg/mL of hyaluronidase. A centrifuge tube containing a dispersed liquid was placed in a water bath and kept at 37° C. for 20 min. A pipette was used to blow and shake the digestive tumor tissues every 5 minutes to fully digest. The dispersed liquid containing undigested tumor tissues was filtered through a 70 μm stainless steel cell screen, and the remaining undigested tumor tissues were ground using a push rod of 20 mL syringe on 70 μm cell screen and rinsed 5 times with 1 mL of PBS while grinding. The cell suspension passing the cell screen was transferred to a 15 mL centrifuge tube, and centrifuged at 4000 rpm for 3 min. Then, cell precipitates were collected, to which was added 2 mL of red cell lysis buffer, and rested for 10 min, followed by centrifuging at 4000 rpm for 3 min. After washing with PBS, the cells were resuspended by adding 2-3 mL of PBS.
An appropriate amount of cell suspension was used as the sample for flow cytometry, and after counting, the cell suspension was adjusted to have a concentration of 5×10^6/mL. 100 μL of cell suspension was added to a test tube with a pipettor. […]
Background: A flow cytometer gives signals particle by particle.

Assay [2] concerns nonfusion human umbilical vein endothelial cells (HUVEC). Briefly: TMT quantitative proteomics on nonfusion HUVEC. The assay is classed as cell-based. The following applies: 10 μM; for Differentially expressed proteins: more than 1.5 times or less than 0.67 times vs control; for Down-regulation / Up-regulation: number of proteins. Here is the method: Nonfusion human umbilical vein endothelial cells (HUVEC) were used to simulate new tumor blood vessels, while confluent HUVECs were used to simulate normal blood vessels, to construct experimental models. Two different HUVECs were treated with the compound at the same dosage of 10 μM, to simulate the fusion cell state, and proteome samples were prepared. After preparation of peptide segments, the segments were labelled with TMT, and a quantitative proteomics analysis was carried out. The efficiency of TMT labeling was higher than 99.4%, and a total of 28372 peptide segments from 4934 proteins were characterized using a strict 1% FDR limit. Among them, 4909 quantifiable proteins were identified, indicating reliable quality. The nonfusion treatment groups and the fusion treatment groups were compared with their respective control groups, and the control group was used as a reference, with a significant difference of more than 1.5 times or less than 0.67 times as the protein score standard.
The total cell proteins of the samples in nonfusion cell groups and fusion cell groups were extracted separately, and 2 μg of protein samples were subjected to quality analysis, The quantitative proteomics experiments were carried out, and the protein concentration assay was performed by quantitative grayscale measurement.
Data analysis: The human protein database (Scientific name: Homo sapiens, 9606) was downloaded from UniProt, MaxQuant (v 1.5.5.1) search engine was used to search for the database. A total of 4934 proteins (4909 quantitative proteins) and 28372 peptide segments were identified by TMT quantitative proteomics experiments, with a labeling efficiency of more than 99%, and the complete digestion occupied 86.3%.

The subject of assay [3] is human liver cancer QGY7703. Briefly: Human liver cancer QGY7703 transplanted tumor in nude mice. The class given is in vivo, BALB/C nude mice. The arrangement: key to RTV (d 18): RTV = Vt/Vo, tumor volume relative to volume at grouping (d1). As to conditions: QGY7703, 100 mg/kg iv × 14. Here is the method: A human liver cancer QGY7703 model transplanted into nude mice was used in the experiment to investigate the anti-tumor effect of test compounds. The mice were intravenously injected at a dosage of 100 mg/kg for 14 days, and the tumor inhibition rate against human liver cancer QGY7703 was measured.
(§1) Preparation: The compound was prepared as the injection at the desired concentration with sterile normal saline, prior to administration.
Animal strain: BALB/C nude mice (SPF grade), weight: 19-21 g, gender: male. Number of animals in each treatment group: 8; number of animals in the control group: >12.
The tumor blocks of human liver cancer QGY7703 with good growth were cut into uniform small pieces of 3 mm under sterile conditions, and then subcutaneously inoculated into the right armpit of each mouse with a cannula. These mice were divided into 9 groups, 8 mice for each treatment group, while more than 12 mice were included in the control group.
(§2) 14 days after inoculation, the average volume of the tumor block was about 100 mm^3. The animals were regrouped based on the size of the tumor, and the animals with tumors that were too large and too small were sifted out. For each group, the average volume of tumors was basically the same, and then the mice were initially treated with test compounds. The mice in the treatment groups were intravenously injected once a day for 14 days, at a dosage of 0.1 mL/20 g body weight; the mice in the control group were given the same volume of sterile normal saline. From the 14th day of inoculation, the long diameter a (mm) of the tumor, together with the perpendicular short diameter b (mm), was measured using a digital electronic caliper, twice a week. The calculation formula of tumor volume is: TV=ab^2/2, and the formula for calculating the relative tumor volume is RTV=Vt/Vo, wherein Vo denotes the tumor volume measured when the mice were divided into groups (i.e. d1), and Vt is the tumor volume from each measurement.
(§3) The result determination is based on the following formula: […]

Assay [4] has as its system human renal cell carcinoma AGHN. The assay can be described thus: Human renal cell carcinoma AGHN transplanted tumor in nude mice. The assay is classed as in vivo, BALB/C nude mice. As to conditions: 200 mg/kg ip × 14. Here is the method:
A human renal cell carcinoma AGHN model transplanted into nude mice was used in the experiment to investigate the anti-tumor effect of test compounds. […] AGHN was measured.
as §1
Animal strain: BALB/C, nude mice (SPF grade), weight: 19-21 g, gender: male. Number of animals in each treatment group: 8; number of animals in the control group: >12.
The tumor blocks of human renal cell carcinoma AGHN with good growth were cut into uniform small pieces of 3 mm under sterile conditions, and then subcutaneously inoculated into the right armpit of each mouse with a cannula. The mice were divided into 9 groups, 8 mice for each treatment group, while >12 mice were included in the control group.
as §2, with “about 100 mm^3, The animals” for “about 100 mm^3. The animals”, “The mice were intraperitoneally” for “The mice in the treatment groups were intravenously”, “mice were intraperitoneally injected once” for “groups were intravenously injected once”, “dosage of 0.2 mL/20 g” for “dosage of 0.1 mL/20 g”, “tumor volume is: RTV=Vt/Vo, wherein” for “tumor volume is RTV=Vt/Vo, wherein”, “and Vt denotes the tumor” for “and Vt is the tumor”
as §3

For assay [5], the system named is LLC (mouse lung cancer cells). The assay can be described thus: Enrichment of CD8+ cytotoxic T lymphocytes in tumor tissue, Lewis non-small cell lung cancer model of mice. The assay is classed as in vivo. The following applies: 400 mg/kg ip once a day for 10 days, CD8+ immunohistochemistry.
A further assay concerns human lung cancer A549. The assay can be described thus: Human lung cancer A549 transplanted tumors in nude mice. As to conditions: A549, 400 mg/kg ig × 14. The class given is in vivo, BALB/C nude mice. Here is the method: In this experiment, a human lung cancer A549 model transplanted into nude mice was selected to study the anti-tumor effect of test compounds. The mice were treated at a dosage of 400 mg/kg by gavage for 14 days, and the tumor inhibition rate against human lung cancer A549 was measured.
Preparation: The compound was prepared as the solution at the desired concentration with distilled water, prior to administration.
Animal strain: BALB/C nude mice (SPF grade), weight: 19-21 g, gender: male. Number of animals in each treatment group: 8; Number of animals in the control group: >12.
Lung cancer A549 tumor blocks with good growth were chosen and cut into uniform small pieces of 3 mm under sterile conditions, and then subcutaneously inoculated into the right armpit of each mouse with a cannula. These mice were divided into 9 groups, 8 mice for each treatment group, while more than 12 mice were included in the control group.
14 days after inoculation, the average volume of the tumor mass was about 100 mm^3. The animals were regrouped based on the size of the tumor, and the mice with tumors that were too large and too small were eliminated. For each group, the average volume of tumors was basically the same, and then the mice were treated with test compounds. The mice in the treatment groups were administered once a day by gavage for 14 successive days, at a dosage of 0.5 mL/20 g body weight; the mice in the control group were given the same volume of physiological saline. From the 14th day of inoculation, the long diameter a (mm) of the tumor, together with the perpendicular short diameter b (mm), was measured using a digital electronic caliper, twice a week. The calculation formula of tumor volume is: TV=ab^2/2, and the formula for calculating the relative tumor volume is RTV=Vt/Vo, wherein Vo denotes the tumor volume measured when the mice were divided into groups (i.e. d1), and Vt is the tumor volume from each measurement.
as §3

The test system of assay [6] is human ovarian cancer A2780. Briefly: Human ovarian cancer A2780 transplanted tumor in nude mice. The class given is in vivo, BALB/C nude mice. The following applies: A2780, 200 mg/kg ip × 14. As to the method:
A human ovarian cancer A2780 model transplanted into nude mice was used in the experiment to investigate the anti-tumor effect of test compounds.
as §1
Animal strain: BALB/C nude mice (SPF grade), weight: 19-21 g, gender: male.
Number of animals in each treatment group: 8; number of animals in the control group: >12.
The tumor blocks of human ovarian cancer A2780 growing well were cut into uniform small pieces of 3 mm under sterile conditions, and then subcutaneously inoculated into the right armpit of each mouse with a cannula. The mice were divided into 9 groups, 8 mice for each treatment group, while >12 mice were included in the control group.
as §2, with “mice” for “mice in the treatment groups”, “intraperitoneally” for “intravenously”, “0.2” for “0.1”
as §3

For `COc1ccc(/C=C(/C(=O)O)c2cc(OC)c(OC)c(OC)c2)c(OC)c1O` [Compound 12, (E)-3-(3-hydroxy-2,4-dimethoxyphenyl)-2-(3,4,5-trimethoxyphenyl)acrylic acid], the “The ratio of CD8^+ in total immune cells of tumor tissues (%)” value in assay [1] came to 0.0753 ± 0.0103%. Also, in assay [2], the Differentially expressed proteins amounted to 322, the Down-regulation is given as 314 and the Up-regulation was found to be 8. Also, the inhibition in vivo at 100 mg/kg in assay [3] (Mus musculus, QGY-7703, read-out: Tumor inhibitory rate %) is 62.2%. For the same molecule, the “RTV (d 18)” value in assay [3] is recorded as 4.86 ± 0.59. Also, in assay [4], the “RTV (d 18)” value was determined as 5.62 ± 0.59 and the “Tumor inhibitory rate %” value is 58.48^## %. For the same molecule, the “The ratio of distribution area in tumor tissues (%)” value in assay [5] is 5.883 ± 0.6723%.
Regarding `CCOc1ccc(/C=C(/C(=O)O)c2cc(OC)c(OC)c(OC)c2)cc1O` [Compound 13, (E)-3-(4-ethoxy-3-hydroxyphenyl)-2-(3,4,5-trimethoxyphenyl)acrylic acid], the “The ratio of CD8^+ in total immune cells of tumor tissues (%)” value in assay [1] was determined as 0.0723 ± 0.0126%. In assay [2], the Differentially expressed proteins was 319, the Down-regulation stood at 312 and the Up-regulation stood at 7. Further, the “RTV (d 22)” value in the assay on human lung cancer A549 was 3.83 ± 0.64. The inhibition in vivo at 400 mg/kg in the assay on human lung cancer A549 (Mus musculus, po, read-out: Tumor inhibitory rate %) is 67.4%. Also, in assay [6], the “RTV (d 18)” value turned out to be 4.78 ± 0.83 and the “Tumor inhibitory rate %” value was 53.64^## %. Further, the “The ratio of distribution area in tumor tissues (%)” value in assay [5] turned out to be 6.547 ± 0.5843%.
